Consider 39 compounds from ChEMBL document CHEMBL5528056, “BAY-9835: Discovery of the First Orally Bioavailable ADAMTS7 Inhibitor” (J Med Chem, 2024).

In general, IC50 refers to the midpoint of a concentration-inhibition curve.

Data set [1] can be described thus: Selectivity ratio of IC50 for MMP12 (unknown origin) to IC50 for ADAMTS7 (unknown origin).
The nature of data set [2]: Clearance in iv-dosed Wistar rat measured after 24 hrs by HPLC-MS/MS analysis. It is filed as ADME. As to conditions: in vivo.
Data set [3] deals with A disintegrin and metalloproteinase with thrombospondin motifs 7 (Homo sapiens, UniProt Q9UKP4). The data set can be described thus: Inhibition of recombinant ADAMTS7 (unknown origin) using HiLyteFluor-488 DELSSMVLELRGLRT-K(QXL520)-E-NH2 as substrate incubated for 120 mins by FRET assay.
Chain of A disintegrin and metalloproteinase with thrombospondin motifs 7 (Q9UKP4 whole entry): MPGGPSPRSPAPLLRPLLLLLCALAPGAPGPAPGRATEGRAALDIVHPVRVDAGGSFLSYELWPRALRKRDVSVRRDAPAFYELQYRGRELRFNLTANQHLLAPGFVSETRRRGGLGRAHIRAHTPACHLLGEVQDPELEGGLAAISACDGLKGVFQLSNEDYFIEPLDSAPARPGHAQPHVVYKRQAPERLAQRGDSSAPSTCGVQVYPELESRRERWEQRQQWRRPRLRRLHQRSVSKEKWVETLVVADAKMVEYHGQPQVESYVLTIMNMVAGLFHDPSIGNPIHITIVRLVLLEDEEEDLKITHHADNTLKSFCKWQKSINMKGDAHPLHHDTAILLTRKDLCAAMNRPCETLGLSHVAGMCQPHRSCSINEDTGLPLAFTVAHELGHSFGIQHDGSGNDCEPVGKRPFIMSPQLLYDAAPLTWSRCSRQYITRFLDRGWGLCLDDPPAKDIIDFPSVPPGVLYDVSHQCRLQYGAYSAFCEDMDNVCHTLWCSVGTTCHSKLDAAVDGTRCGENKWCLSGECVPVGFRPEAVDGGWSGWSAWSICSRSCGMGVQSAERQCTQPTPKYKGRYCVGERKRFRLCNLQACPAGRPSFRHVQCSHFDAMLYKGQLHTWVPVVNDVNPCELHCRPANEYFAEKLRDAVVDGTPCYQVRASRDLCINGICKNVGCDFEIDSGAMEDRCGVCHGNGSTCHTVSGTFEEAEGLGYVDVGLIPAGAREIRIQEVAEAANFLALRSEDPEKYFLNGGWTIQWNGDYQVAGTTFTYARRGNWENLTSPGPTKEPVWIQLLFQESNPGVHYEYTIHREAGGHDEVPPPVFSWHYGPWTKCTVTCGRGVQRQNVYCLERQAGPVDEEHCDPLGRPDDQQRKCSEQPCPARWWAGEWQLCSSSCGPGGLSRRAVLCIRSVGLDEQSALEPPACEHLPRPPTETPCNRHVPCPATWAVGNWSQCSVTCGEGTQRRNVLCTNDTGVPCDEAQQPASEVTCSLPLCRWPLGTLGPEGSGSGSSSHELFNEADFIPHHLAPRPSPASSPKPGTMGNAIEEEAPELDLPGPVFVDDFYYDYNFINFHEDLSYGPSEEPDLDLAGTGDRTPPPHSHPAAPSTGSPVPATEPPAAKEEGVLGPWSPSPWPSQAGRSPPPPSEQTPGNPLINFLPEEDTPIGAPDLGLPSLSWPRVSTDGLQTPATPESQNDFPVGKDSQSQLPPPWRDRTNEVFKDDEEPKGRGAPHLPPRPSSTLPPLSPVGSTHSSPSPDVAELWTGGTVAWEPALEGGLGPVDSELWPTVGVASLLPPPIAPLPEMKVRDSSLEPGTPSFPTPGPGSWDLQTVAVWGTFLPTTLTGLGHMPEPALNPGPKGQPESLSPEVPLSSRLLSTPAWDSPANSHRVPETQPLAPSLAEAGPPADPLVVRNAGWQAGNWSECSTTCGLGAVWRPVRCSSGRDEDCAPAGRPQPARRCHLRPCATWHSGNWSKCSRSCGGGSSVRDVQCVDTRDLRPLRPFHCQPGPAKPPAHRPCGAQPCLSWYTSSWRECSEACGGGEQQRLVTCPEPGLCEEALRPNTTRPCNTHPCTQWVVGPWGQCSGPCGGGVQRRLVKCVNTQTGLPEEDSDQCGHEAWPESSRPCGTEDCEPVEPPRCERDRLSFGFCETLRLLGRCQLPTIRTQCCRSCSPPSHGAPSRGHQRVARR
The nature of data set [4]: Unbound plasma protein binding in iv-dosed Wistar rat measured after 24 hrs by HPLC-MS/MS analysis. It is filed as ADME, cell-free.
Data set [5] in a line: Oral bioavailability iv-dosed Wistar rat measured after 24 hrs by HPLC-MS/MS analysis. It is filed as ADME, organism-based. As to conditions: in vivo.
A short description of data set [6]: Selectivity ratio of IC50 for ADAMTS12 (unknown origin) to IC50 for ADAMTS7 (unknown origin).
The target of the next data set is Cytochrome P450 3A4 (Homo sapiens, UniProt P08684). The data set can be described thus: Induction of CYP3A4 in human hepatocytes assessed as threshold concentration incubated for 48 hrs by qPCR analysis. It is filed as ADME, cell-based, Hepatocyte. A general note: Quantitative PCR measures a nucleic acid by following its amplification.
Chain of Cytochrome P450 3A4 (P08684 whole entry): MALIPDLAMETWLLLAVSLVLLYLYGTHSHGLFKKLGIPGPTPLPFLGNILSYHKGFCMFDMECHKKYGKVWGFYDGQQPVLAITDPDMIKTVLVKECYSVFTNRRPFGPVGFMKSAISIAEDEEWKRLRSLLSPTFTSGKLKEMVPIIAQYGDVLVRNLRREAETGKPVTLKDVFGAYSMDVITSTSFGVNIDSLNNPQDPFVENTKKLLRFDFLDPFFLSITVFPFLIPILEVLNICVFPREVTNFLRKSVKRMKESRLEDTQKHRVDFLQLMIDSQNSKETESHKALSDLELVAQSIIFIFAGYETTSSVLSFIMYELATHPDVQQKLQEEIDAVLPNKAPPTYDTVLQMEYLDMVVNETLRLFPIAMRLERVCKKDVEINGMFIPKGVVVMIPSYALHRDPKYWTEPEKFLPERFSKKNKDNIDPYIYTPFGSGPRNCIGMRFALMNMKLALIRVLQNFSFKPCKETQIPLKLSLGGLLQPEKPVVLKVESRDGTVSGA
Data set [7] is described as follows: AUC (infinity) in iv-dosed Wistar rat by HPLC-MS/MS analysis. As to conditions: in vivo. It is filed as ADME.
The nature of data set [8]: Selectivity ratio of IC50 for ADAMTS4 (unknown origin) to IC50 for ADAMTS7 (unknown origin).
The nature of data set [9]: Selectivity ratio of IC50 for ADAMTS5 (unknown origin) to IC50 for ADAMTS7 (unknown origin).
A short description of data set [10]: Selectivity ratio of IC50 for ADAM17 (unknown origin) to IC50 for ADAMTS7 (unknown origin).
A short description of data set [11]: Selectivity ratio of IC50 for MMP2 (unknown origin) to IC50 for ADAMTS7 (unknown origin).
Data set [12] is described as follows: Selectivity ratio of IC50 for MMP15 (unknown origin) to IC50 for ADAMTS7 (unknown origin).

Several values for one entry are separate records, joined by “and”; a condition that tells them apart may be missing. Equal entries are not always repeated.

With `CCn1nccc1C1(CNC(=O)c2ccccc2-c2ccc(C(F)(F)F)cc2)NC(=O)NC1=O` (centres undefined), the Ratio IC50 in data set [1] stood at 96. Moreover, the CL in [2] was determined as 17 mL/min/kg.
For `Cn1nccc1[C@]1(CNC(=O)c2ccc(C(F)(F)F)c(F)c2-c2ccc(C(F)(F)F)cc2)NC(=O)NC1=O`, the IC50 in data set [3] came out at 0.01 µM.
`O=C1NC(=O)[C@](CNC(=O)c2cnn(-c3cccc(F)c3)n2)(C2CC2)N1`: the Ratio IC50 in data set [1] stood at 1.1.
Regarding `O=C1NC(=O)[C@](CNC(=O)c2cnn(Cc3ccc(Cl)cc3)c2)(C2CC2)N1`, the Ratio IC50 in [1] was 7.4. In addition, in data set [3], the IC50 worked out at 0.28 µM.
Consider `O=C1NC(=O)[C@](CNC(=O)c2cnn(-c3ccccc3)n2)(C2CC2)N1`, for which the Fu in data set [4] is recorded as 15%. This compound also had a F in data set [5] of 74%. Besides, the Ratio IC50 in data set [6] was found to be 0.2. Further, in data set [3], the IC50 worked out at 0.061 µM. In data set [2], this compound gave a CL of 12 mL/min/kg.
Regarding `Cn1nccc1[C@]1(CNC(=O)c2cc(F)ccc2-c2ccc(C(F)(F)F)cc2)NC(=O)NC1=O`, the half-maximal inhibitory concentration (IC50) in [3] was found to be 0.019 µM. In data set [2], this compound returned a CL of 10 mL/min/kg.
On to `O=C1NC(=O)C(CNC(=O)c2ccccc2-c2ccc(C(F)(F)F)cc2)(c2ncsc2C(F)(F)F)N1` (centres undefined), for which, in data set [1], the Ratio IC50 was 31.
Still for that read-out and setting: to `O=C1NC(=O)[C@](CNC(=O)c2cnn(-c3ccc(Cl)cc3)n2)(C2CC2)N1` belongs 0.8.
As for `Cc1scnc1C1(CNC(=O)c2ccccc2-c2ccc(C(F)(F)F)cc2)NC(=O)NC1=O` (centres undefined), in data set [1], the Ratio IC50 came to 188. In data set [3], the IC50 came to 0.006 µM. For the same compound, the CL in [2] stood at 20 mL/min/kg.
On to `Cn1cc(Cn2ncc(C(=O)NC[C@@]3(C4CC4)NC(=O)NC3=O)n2)cn1`, for which the Ratio IC50 in [1] turned out to be 29.4. Besides, the IC50 in data set [3] came to 0.85 µM.
With `Cc1c(C2(CNC(=O)c3ccccc3-c3ccc(C(F)(F)F)cc3)NC(=O)NC2=O)cnn1C` (centres undefined), the Ratio IC50 in data set [1] stood at 18.
On to `Cn1ccnc1C1(CNC(=O)c2ccccc2-c2ccc(C(F)(F)F)cc2)NC(=O)NC1=O` (single isomer, unassigned), for which the Ratio IC50 in data set [1] came out at 450. For the same compound, at Cytochrome P450 3A4, the Activity was determined as 0.6 µM. Further, in [7], the AUC was 0.6 kg·h/L. The concentration for half-maximal inhibition (IC50) in data set [3] was determined as 0.003 µM.
Consider `Cc1sc(-c2cccnc2)nc1C1(CNC(=O)c2ccc(F)c(F)c2-c2ccc(C(F)(F)F)cc2)NC(=O)NC1=O` (centres undefined), for which the Ratio IC50 in data set [6] was determined as 14. Also, the IC50 in data set [3] was determined as 0.009 µM.
On to `Cn1nccc1[C@]1(CNC(=O)c2ccccc2-c2ccc(C(F)(F)F)cc2)NC(=O)NC1=O`, for which the Ratio IC50 in [8] was determined as 1440; in data set [9] it was 3220; in data set [6], 1; in data set [10] it was 303; in [11], 8320; in data set [12], 6390. Besides, the Activity at Cytochrome P450 3A4 came to 16.6 µM.
Take `O=C1NC(=O)C(CNC(=O)c2ccccc2-c2ccc(C(F)(F)F)cc2)(c2cscn2)N1` (centres undefined): the Ratio IC50 in data set [1] is 67. The compound also registered a CL in [2] of 23.3 mL/min/kg.
On to `O=C1NC(=O)[C@](CNC(=O)c2cnn(-c3ccccc3F)n2)(C2CC2)N1`, for which, in [1], the Ratio IC50 was 0.4.
Take `Cc1ccc(-c2ccccc2C(=O)NC[C@@]2(C3CC3)NC(=O)NC2=O)cc1`: the Ratio IC50 was 115 in data set [8]; 213 in data set [9]; 12 and 12.4 in data set [1]; 826 in [10]; 759 in data set [11]; 872 in [12].
As for `Cc1nc(C2(CNC(=O)c3ccccc3-c3ccc(C(F)(F)F)cc3)NC(=O)NC2=O)c(C)s1` (centres undefined), the Ratio IC50 in [1] came out at 36. Also, in data set [3], the concentration for half-maximal inhibition (IC50) amounted to 0.015 µM.
The corresponding values for `O=C1NC(=O)[C@](CNC(=O)c2cnn(-c3ccc(F)cn3)n2)(C2CC2)N1` are 0.6 and 0.115 µM.
On to `O=C1NC(=O)[C@](CNC(=O)c2cnn(-c3cnsc3)n2)(C2CC2)N1`, for which the Ratio IC50 in data set [1] is 0.2.
With `Cn1nccc1[C@]1(CNC(=O)c2cccc(F)c2-c2ccc(C(F)(F)F)cc2)NC(=O)NC1=O`, the IC50 in [3] worked out at 0.005 µM. In addition, the CL in [2] stood at 12 mL/min/kg.
As for `Cn1nccc1[C@]1(CNC(=O)c2ccc(F)cc2-c2ccc(C(F)(F)F)cc2)NC(=O)NC1=O`, the IC50 in [3] turned out to be 0.019 µM. The CL in [2] was 15 mL/min/kg.
Take `Cc1sc(-c2ccccc2)nc1C1(CNC(=O)c2ccc(F)c(F)c2-c2ccc(C(F)(F)F)cc2)NC(=O)NC1=O` (centres undefined): the Ratio IC50 in [6] is 10. In [3], the half-maximal inhibitory concentration (IC50) was 0.047 µM.
On to `O=C1NC(=O)[C@](CNC(=O)c2ccccc2-c2ccc(C(F)(F)F)cc2)(C2CC2)N1`, for which, in [1], the Ratio IC50 worked out at 11. Moreover, the CL in data set [2] is 1.7 mL/min/kg.
On to `O=C1NC(=O)[C@](CNC(=O)c2cnn(-c3ccc(F)cc3)n2)(C2CC2)N1`, for which the Ratio IC50 in [8] is above 20800; in data set [9], 12700; in data set [6], 26; in [10] it was 863; in [12], 41700.
`Cn1nc(-c2ccccc2)cc1C1(CNC(=O)c2ccc(F)c(F)c2-c2ccc(C(F)(F)F)cc2)NC(=O)NC1=O` (centres undefined): the Ratio IC50 in [8] was above 20800; in data set [9], 12700; in data set [1], 1450; in data set [6] it was 26; in data set [10] it was 863; in [12], 41700.
Take `Cc1nc(Cn2ncc(C(=O)NC[C@@]3(C4CC4)NC(=O)NC3=O)n2)cs1`: the Ratio IC50 in data set [1] came out at 33.5. Also, the IC50 in data set [3] worked out at 0.93 µM.
As for `Cc1ccc(-c2cccc(C(=O)NC[C@@]3(C4CC4)NC(=O)NC3=O)c2)cc1`, in [3], the IC50 was determined as 2.3 µM.
On the same count and under the same terms, to `Cn1nccc1[C@]1(CNC(=O)c2ccc(Cl)c(F)c2-c2ccc(C(F)(F)F)cc2)NC(=O)NC1=O` belongs 0.003 µM.
Regarding `O=C1NC(=O)[C@](CNC(=O)c2cnn(-c3ccccc3)c2)(C2CC2)N1`, in [1], the Ratio IC50 was found to be 0.03.
As to `O=C1NC(=O)[C@](CNC(=O)c2cnn(-c3cccc(Cl)c3)n2)(C2CC2)N1`, in [1], the Ratio IC50 amounted to 0.1.
Consider `Cn1nccc1[C@]1(CNC(=O)c2cccc(Cl)c2-c2ccc(C(F)(F)F)cc2)NC(=O)NC1=O`, for which the IC50 in data set [3] was determined as 0.016 µM.
Take `O=C1NC(=O)C(CNC(=O)c2ccccc2-c2ccc(C(F)(F)F)cc2)(c2ccnn2CC(F)(F)F)N1` (centres undefined): the Ratio IC50 in [1] was 29.
Consider `COc1cccc(C(=O)NC[C@@]2(c3ccnn3C)NC(=O)NC2=O)c1-c1ccc(C(F)(F)F)cc1`, for which the half-maximal inhibitory concentration (IC50) in data set [3] came to 0.029 µM.
On the same count and under the same terms, in the case of `Cn1nccc1[C@]1(CNC(=O)c2c(F)cccc2-c2ccc(C(F)(F)F)cc2)NC(=O)NC1=O` it was 0.079 µM.
Consider `Cc1ccc(-n2ncc(C(=O)NC[C@@]3(C4CC4)NC(=O)NC3=O)n2)cc1`, for which, in data set [1], the Ratio IC50 amounted to 0.1.
`O=C1NC(=O)[C@](CNC(=O)c2cnn(Cc3nccs3)n2)(C2CC2)N1`: the Ratio IC50 in [1] came to 4.6. Also, the IC50 in [3] came to 0.91 µM.
For the compound `Cc1ccc(-c2ccc(C(=O)NC[C@@]3(C4CC4)NC(=O)NC3=O)cc2)cc1`, in [1], the Ratio IC50 is 4.7 10^-4No_unit. Besides, the IC50 in [3] amounted to 0.58 µM.
As for `Cc1cn(-c2ccccc2)nc1C1(CNC(=O)c2ccc(F)c(F)c2-c2ccc(C(F)(F)F)cc2)NC(=O)NC1=O` (centres undefined), the Ratio IC50 in [6] turned out to be 14. Besides, the IC50 in data set [3] amounted to 0.008 µM.
